Ends that are not written are not given here.
What was measured:
[1] = tested on: E. coli strain BL21 (and, in some cases, ATCC25922); details: BL21, 24 h
[2] = tested on: E. coli BL21; details: BL21, 24 h

| Sequence | MIC [1] [µM] | IC50 [2] [µM] | IC99 (~MIC) [2] [µM] |
| --- | --- | --- | --- |
| FQWQRNIRKVR [11P-2] | >20 |  |  |
| FWQRRIRRWRR [11P-3] | >20 | 49 ± 2.79 | 160.80 ± 3.25 |
| FWQRRIRRWRRGSGYGSPGKKLIKKILKIL [30P-2] | 1.25 to 2.5 |  |  |
| FWQRRIRRWRRGSGYGSPGRRWWRWWR [27P-2] | 5 to 10 |  |  |
| IERSRNLDWYKGPTLLDALKNLNEGKRPSDK [I31LB] | >20 |  |  |
| IERSTNLDWYKGPTLL [16P-1] | >20 |  |  |
| KKLIKKILKIL [11P-1] | 10 to 20 | 12.9 ± 0.62 | 29.38 ± 0.75 |
| KKLPKEILKILGSGYGSLPKEILKILELKK [Gen-1] | 5 to 10 | 10.22 ± 0.07 | 11.4 ± 0.07 |
| KPRGSEQLQELTRRLLDSPLERRFWQWMRR [UGK-37] | >20 |  |  |
| KPRGSEQLQELTRRLLDSPLERRWWEWMRR [UGK-29] | >20 |  |  |
| KPRLSEQLQELTRRLLDSPLERRWWEWWRR [UGK-33] | >20 |  |  |
| KRPEELLQKLKSLEGSKAHLQHHDWTSK [UGK-41] | >20 |  |  |
| LPKRLEELLQKLKSLEGSKAHEKLHDWTRK [UGK-45] | >20 |  |  |
| QPKRLEELLEKLKSLEGSKAHEKLHDWTRK [UGK-49] | >20 |  |  |
| RLPEAFQWQRNIRKVRRPDSPGRRWWRWWR [UGK-9] | 5 to 10 |  |  |
| RLPEAFQWQRRLRRWRRPDSPGRRWWRWWR [UGK-5] | 5 to 10 |  |  |
| RLPKAFQWQRRLRRWRRPYSPGRRWWRWWR [UGK-1] | 5 to 10 |  |  |
| RRWWRWWR [8P-1] | >20 |  |  |
| RRWWRWWRGSGYGSPGFWQRRIRRWRR [27P-1] | >20 |  |  |
| RRWWRWWRGSYGSVYGSPGFWQRRIRRWRR [UGI-7] | 5 to 10 |  |  |

Source: PMC9816411, “Host-derived chimeric peptides clear the causative bacteria and augment host innate immunity during infection: A case study of HLB in citrus and fire blight in apple” (Frontiers in Plant Science, 2022)
